In US20260027116A1, “Methods of Treating Chronic Graft-Versus-Host Disease Following Allogeneic Hematopoietic Stem Cell Transplantation” (Kadmon Corporation, LLC, priority 2022, published 2026):

Legend:
[1] = test system: patients with cGVHD; test: Example 2: safety, adverse events, relative dose intensity; format: in vivo; details: for Hyperglycemia / Hypertension / Pneumonia: Grade ≥ 3; for ALT increased / AST increased / Bilirubin conjugated increased / Blood alkaline phosphatase increased / GGT increased / Hypoalbuminemia / LFT increased / Transaminases increased: Liver-related AE
Procedure: (§1) All responses were assessed by the study site investigators.

[2] = test system: cGVHD; test: Example 2: corticosteroid and other immunosuppressant reduction; format: in vivo, human
Procedure: as §1

**Q.** With `CC(C)NC(=O)COc1cccc(-c2nc(Nc3ccc4[nH]ncc4c3)c3ccccc3n2)c1` [Belumosudil, 2-{3-[4-(1H-indazol-5-ylamino)-2-quinazolinyl]phenoxy}-N-(propan-2-yl) acetamide] as the compound, how does the tolerability ([1]; Example 2) read?
**A.** well tolerated

**Q.** And the “cases of Epstein-Barr viremia that required treatment” value ([1]; Example 2, unrelated to belumosudil)?
**A.** 1 case

**Q.** And the Hyperglycemia ([1]; 200 mg daily (n = 66))?
**A.** 3 (5) n (%)

**Q.** And the Hypertension ([1]; 200 mg daily (n = 66))?
**A.** 4 (6) n (%)

**Q.** And the Pneumonia ([1]; 200 mg daily (n = 66))?
**A.** 6 (9) n (%)

**Q.** And the Hyperglycemia ([1]; 200 mg twice daily (n = 66))?
**A.** 3 (5) n (%)

**Q.** What about the Hypertension ([1]; 200 mg twice daily (n = 66)) of the same compound?
**A.** 4 (6) n (%)

**Q.** And the Pneumonia ([1]; 200 mg twice daily (n = 66))?
**A.** 4 (6) n (%)

**Q.** And the Hyperglycemia ([1]; Total (N = 132))?
**A.** 6 (5) n (%)

**Q.** What about the Hypertension ([1]; Total (N = 132)) of the same compound?
**A.** 8 (6) n (%)

**Q.** What about the Pneumonia ([1]; Total (N = 132)) of the same compound?
**A.** 10 (8) n (%)

**Q.** What about the ALT increased ([1]; 200 mg daily (n = 66)) of the same compound?
**A.** 4 (6) n (%)

**Q.** And the AST increased ([1]; 200 mg daily (n = 66))?
**A.** 5 (8) n (%)

**Q.** And the Bilirubin conjugated increased ([1]; 200 mg daily (n = 66))?
**A.** 1 (2) n (%)

**Q.** What about the “Blood alkaline phosphatase increased” value ([1]; 200 mg daily (n = 66)) of the same compound?
**A.** 4 (6) n (%)

**Q.** What about the GGT increased ([1]; 200 mg daily (n = 66)) of the same compound?
**A.** 6 (9) n (%)

**Q.** And the Hypoalbuminemia ([1]; 200 mg daily (n = 66))?
**A.** 2 (3) n (%)

**Q.** And the LFT increased ([1]; 200 mg daily (n = 66))?
**A.** 1 (2) n (%)

**Q.** And the Transaminases increased ([1]; 200 mg daily (n = 66))?
**A.** 1 (2) n (%)

**Q.** And the ALT increased ([1]; 200 mg twice daily (n = 66))?
**A.** 7 (11) n (%)

**Q.** What about the AST increased ([1]; 200 mg twice daily (n = 66)) of the same compound?
**A.** 8 (12) n (%)

**Q.** And the Bilirubin conjugated increased ([1]; 200 mg twice daily (n = 66))?
**A.** 0 n (%)

**Q.** And the “Blood alkaline phosphatase increased” value ([1]; 200 mg twice daily (n = 66))?
**A.** 6 (9) n (%)

**Q.** And the GGT increased ([1]; 200 mg twice daily (n = 66))?
**A.** 10 (15) n (%)

**Q.** What about the Hypoalbuminemia ([1]; 200 mg twice daily (n = 66)) of the same compound?
**A.** 2 (3) n (%)

**Q.** And the LFT increased ([1]; 200 mg twice daily (n = 66))?
**A.** 0 n (%)

**Q.** And the Transaminases increased ([1]; 200 mg twice daily (n = 66))?
**A.** 1 (2) n (%)

**Q.** And the ALT increased ([1]; Total (N = 132))?
**A.** 11 (8) n (%)

**Q.** What about the AST increased ([1]; Total (N = 132)) of the same compound?
**A.** 13 (10) n (%)

**Q.** And the Bilirubin conjugated increased ([1]; Total (N = 132))?
**A.** 1 (1) n (%)

**Q.** And the “Blood alkaline phosphatase increased” value ([1]; Total (N = 132))?
**A.** 10 (8) n (%)

**Q.** And the GGT increased ([1]; Total (N = 132))?
**A.** 16 (12) n (%)

**Q.** What about the Hypoalbuminemia ([1]; Total (N = 132)) of the same compound?
**A.** 4 (3) n (%)

**Q.** And the LFT increased ([1]; Total (N = 132))?
**A.** 1 (1) n (%)

**Q.** And the Transaminases increased ([1]; Total (N = 132))?
**A.** 2 (2) n (%)

**Q.** And the “Any AE” value ([1]; Total (N = 132))?
**A.** 131 (99) n (%)

**Q.** And the “Drug-related AEs” value ([1]; Total (N = 132))?
**A.** 89 (67) n (%)

**Q.** What about the “Drug-related SAEs” value ([1]; Total (N = 132)) of the same compound?
**A.** 7 (5) n (%)

**Q.** And the “Grade ≥ 3 AEs” value ([1]; Total (N = 132))?
**A.** 71 (54) n (%)

**Q.** What about the “Liver-related AEs” value ([1]; Total (N = 132)) of the same compound?
**A.** 31 (24) n (%)

**Q.** And the SAEs ([1]; Total (N = 132))?
**A.** 50 (38) n (%)

**Q.** And the Deaths ([1]; Total (N = 132), six died during LTFU (>28 days after last dose))?
**A.** 14 (11) n (%)

**Q.** What about the “Mean change in CS dose from baseline, Nonresponder” value (from here on “Mean change … Nonresponder”) ([2]; 200 mg daily) of the same compound?
**A.** −22%

**Q.** And the “Mean change in CS dose from baseline, Overall” value (shortened to “Mean change … Overall”) ([2]; 200 mg daily)?
**A.** −43%

**Q.** And the “Mean change in CS dose from baseline, Responder” value ([2]; 200 mg daily)?
**A.** −49%

**Q.** And the CS discontinuation ([2]; 200 mg daily (n = 66))?
**A.** 13 (20) n (%)

**Q.** And the “Median CS reduction from baseline to greatest reduction” value (shortened to “Median CS reduction from baseline”) ([2]; 200 mg daily (n = 66))?
**A.** 38%

**Q.** And the “Proportion with CS reduction” value ([2]; 200 mg daily (n = 66))?
**A.** 42 (64) n (%)

**Q.** And the “Mean change … Nonresponder” value ([2]; 200 mg twice daily)?
**A.** −10%

**Q.** And the “Mean change … Overall” value ([2]; 200 mg twice daily)?
**A.** −48%

**Q.** And the “Mean change in CS dose from baseline, Responder” value ([2]; 200 mg twice daily)?
**A.** −58%

**Q.** What about the CS discontinuation ([2]; 200 mg twice daily (n = 66)) of the same compound?
**A.** 15 (23) n (%)

**Q.** And the “Median CS reduction from baseline” value ([2]; 200 mg twice daily (n = 66))?
**A.** 50%

**Q.** What about the “Proportion with CS reduction” value ([2]; 200 mg twice daily (n = 66)) of the same compound?
**A.** 44 (67) n (%)

**Q.** And the “subjects who discontinued calcineurin inhibitor (CNI) therapy” value ([2]; Example 2)?
**A.** 22%

**Q.** What about the “subjects who discontinued mycophenolate mofetil” value ([2]; Example 2) of the same compound?
**A.** 21%

**Q.** What about the “subjects who discontinued sirolimus” value ([2]; Example 2) of the same compound?
**A.** 20%

**Q.** What about the “subjects who reduced corticosteroid dose” value ([2]; Example 2) of the same compound?
**A.** 65%

**Q.** What about the “mean corticosteroid dose reduction” value ([2]; Example 2, mITT) of the same compound?
**A.** 45%

**Q.** And the “mean corticosteroid dose reduction” value ([2]; Example 2, responders)?
**A.** 54%

**Q.** What about the “Mean change … Nonresponder” value ([2]; Total) of the same compound?
**A.** −16%

**Q.** What about the “Mean change … Overall” value ([2]; Total) of the same compound?
**A.** −45%

**Q.** What about the “Mean change in CS dose from baseline, Responder” value ([2]; Total) of the same compound?
**A.** −54%

**Q.** What about the “Median CS reduction from baseline” value ([2]; Total (N = 132)) of the same compound?
**A.** 50%

**Q.** And the “Proportion with CS reduction” value ([2]; Total (N = 132))?
**A.** 86 (65) n (%)
